Experimental data: patent US9345904B2, “Photodynamic therapy using photosensitizing agent or 5-aminolevulinic acid” (SBI Pharmaceuticals Co., Ltd., priority 2011, dated 2016)

What was measured:
HeLa cells = experiment: Cancer therapeutic effect of ALA-PDT by wavelength, hematoxylin-eosin staining of subcutaneous HeLa tumors; type: in vivo, SCID mice; conditions: for tumor tissue histology (effect of ALA-PDT): 750 mg/kg b.w. ALA tail vein, 100 J/cm^2, after 4 hours, tissue taken following day
Protocol: 5×10^5 HeLa cells were subcutaneously injected into SCID mice of the mouse numbers 1 to 3. […] After maintaining the mice until the size of tumors reaches that described in Table 1, 750 mg/kg b.w. of ALA was injected into the tail vein of the mice of numbers 1 and 2. After 4 hours, the mouse of number 1 was irradiated with LED light having a peak at a wavelength of 517 nm and the mouse of number 2 was irradiated with LED light having a peak at a wavelength of 629 nm. The SCID mice irradiated with light listed above were each anesthetized on the following day; a portion containing HeLa cells was cut out, fixed in formaldehyde, subjected to dehydration treatment with ethanol and xylene, and then embedded in paraffin; and a small piece thinly sliced into a thickness of 5 μm was stained with hematoxylin-eosin to observe the tissue under a light microscope.

MKN45 cells = experiment: Cell-killing effect of ALA-PDT by wavelength, MTT assay survival rate; type: cell-based
Protocol: MKN45 cells (purchased from Riken Cell Bank) cultured in a 35-mm dish were cultured for 4 hours in the presence of 0.168 mg/mL ALA. Then, 5 mL of a hemoglobin solution was dispensed into a 60-mm dish, placed on the 35-mm dish in which the culture was performed in the presence of ALA, and irradiated with light. Light shielding by hemoglobin was provided to imitate the inside of a living body because hemoglobin is considered to be a leading cause of the inhibition of light invasion in photodynamic therapy. The culture was irradiated to 4.5 J/cm^2 (5 mW/cm^2, 15 min.) with light having a peak at 402 nm, 502 nm, 517 nm, 529 nm, or 636 nm. […]
The survival rate of cells after light irradiation was measured using an MTT assay method. […] Thereafter, 200 μL thereof was dispensed into a 96-well plate and measured for absorbance at 570 nm using a plate reader (from Bio-Rad). The survival rate was measured from the absorbance of each sample and expressed relative to the absorbance after a medium without cultured cells were subjected to these procedures, set to 0%, and the absorbance after such cells cultured as control were subjected to these procedures, set to 100%. Optical power density with light shielding by hemoglobin was measured using Power Meter (from Scientex, Inc.); the results are shown in FIG. 3.

Structure (SMILES): NCC(=O)CCC(=O)O [ALA, 5-aminolevulinic acid]
- effect of ALA-PDT at 517 nm compared with 629 nm (cell density, amount of blebs) (HeLa cells; mouse number 1 (517 nm) versus mouse number 2 (629 nm), tumors about 4 mm in height): the effect of ALA-PDT was higher
- tumor tissue histology (effect of ALA-PDT) (HeLa cells; mouse number 1, LED 517 nm): the condensation of the cytoplasm, the disappearance of the nucleus, and clearance between cells due to the generation of blebs were observed
- tumor tissue histology (effect of ALA-PDT) (HeLa cells; mouse number 2, LED 629 nm): the condensation of the cytoplasm, the disappearance of the nucleus, and clearance between cells due to the generation of blebs were observed
- cell-killing effect of lights at 502 nm, 517 nm and 529 nm relative to light at 636 nm (MKN45 cells; with light shielding by hemoglobin, lower optical power densities at 502-529 nm): comparable cell-killing effects compared to light at 636 nm
- cell-killing effect of ALA-PDT (MKN45 cells; without light shielding by hemoglobin, 0.168 mg/mL ALA 4 hours, 4.5 J/cm^2, lights with peak at 402, 502, 517, 529 or 636 nm compared): stronger in the order of lights having a peak at 402 nm, 502 nm, 517 nm, 529 nm, or 636 nm
